# Laboratory results taken from US8420633B2 (Hoffmann-La Roche Inc., priority 2010, dated 2013).
# Structures can show the parent of a compound that is named as a salt.
# Biological target: T1, human V1a receptor (Homo sapiens, UniProt P37288)
# T1 construct: expressed in transfected cells; host or cells: HEK293 cells, transiently transfected; membranes prepared
# Assay: human V1a receptor binding (3H-Vasopressin SPA, HEK293 membranes)
# Conditions: not given
# Experimental: The human V1a receptor was cloned by RT-PCR from total human liver RNA. The coding sequence was subcloned in an expression vector after sequencing to confirm the identity of the amplified sequence. […] Cell membranes were prepared from HEK293 cells transiently transfected with the expression vector and grown in 20 liter fermenters with the following protocol.
# 50 g of cells are resuspended in 30 ml freshly prepared ice cold Lysis buffer (50 mM HEPES, 1 mM EDTA, 10 mM magnesium dichloride adjusted to pH=7.4+complete cocktail of protease inhibitor (Roche Diagnostics)). Homogenized with Polytron for 1 min and sonicated on ice for 2×2 minutes at 80% intensity (Vibracell sonicator). The preparation is centrifuged 20 min at 500 g at 4° C., the pellet is discarded and the supernatant centrifuged 1 hour at 43,000 g at 4° C. (19,000 rpm). The pellet is resuspended in 12.5 ml Lysis buffer+12.5 ml sucrose 20% and homogenized using a Polytron for 1-2 min. The protein concentration is determined by the Bradford method and aliquots are stored at −80° C. until use. For binding studies 60 mg Yttrium silicate SPA beads (Amersham®) are mixed with an aliquot of membrane in binding buffer (50 mM Tris, 120 mM sodium chloride, 5 mM potassium chloride, 2 mM calcium dichloride, 10 mM magnesium dichloride) for 15 minutes with mixing. 50 μl of bead/membrane mixture is then added to each well of a 96 well plate, followed by 50 μl of 4 nM 3H-Vasopressin (American Radiolabeled Chemicals). For total binding measurement 100 μl of binding buffer are added to the respective wells, for non-specific binding 100 μl of 8.4 mM cold vasopressin and for compound testing 100 μl of a serial dilution of each compound in 2% dimethyl sulfoxide. The plate is incubated 1 h at room temperature, centrifuged 1 min at 1000 g and counted on a Packard Top-Count. Non-specific binding counts are subtracted from each well and data is normalized to the maximum specific binding set at 100%. To calculate an IC50 the curve is fitted using a non-linear regression model (XLfit) and the Ki is calculated using the Cheng-Prussoff equation.
# T1 sequence (P37288 whole entry): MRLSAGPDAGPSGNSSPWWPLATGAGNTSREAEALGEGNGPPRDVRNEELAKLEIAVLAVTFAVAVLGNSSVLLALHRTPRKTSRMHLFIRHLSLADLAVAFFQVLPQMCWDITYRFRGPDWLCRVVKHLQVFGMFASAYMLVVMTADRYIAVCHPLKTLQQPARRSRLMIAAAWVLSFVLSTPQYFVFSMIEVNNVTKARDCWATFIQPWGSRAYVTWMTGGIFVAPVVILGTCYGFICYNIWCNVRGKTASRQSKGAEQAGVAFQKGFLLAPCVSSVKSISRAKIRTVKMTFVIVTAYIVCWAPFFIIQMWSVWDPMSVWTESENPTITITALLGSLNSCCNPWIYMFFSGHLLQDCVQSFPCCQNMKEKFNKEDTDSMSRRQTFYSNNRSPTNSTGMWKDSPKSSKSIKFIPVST
row,Structure (SMILES),Ki
1,"CC(C)(C)OC(=O)N1Cc2cc(Cl)ccc2-n2c(nnc2[C@H]2CC[C@H](c3cccc(C#N)c3)CC2)C1 [Example 25, trans-8-Chloro-1-[4-(3-cyano-phenyl)-cyclohexyl]-4H,6H-2,3,5,10b-tetraaza-benzo[e]azulene-5-carboxylic acid tert-butyl ester]",7.08 nM

# Same assay, conditions: 3H-Vasopressin displacement, membranes of HEK293 cells transiently transfected with human V1a; Ki from IC50 by Cheng-Prussoff; read-out: pKi (hV1a) (converted)
row,Structure (SMILES),Ki
1,"Fc1ccc([C@H]2CC[C@H](c3nnc4n3-c3ccc(Cl)cc3CNC4)CC2)cc1 [Example 11, trans-8-Chloro-1-[4-(4-fluoro-phenyl)-cyclohexyl]-5,6-dihydro-4H-2,3,5,10b-tetraaza-benzo[e]azulene hydrochloride]",6.31 nM
2,"CC(C)(C)OC(=O)N1Cc2cc(Cl)ccc2-n2c(nnc2[C@H]2CC[C@H](c3cccc(F)c3Cl)CC2)C1 [Example 16, trans-8-Chloro-1-[4-(2-chloro-3-fluoro-phenyl)-cyclohexyl]-4H,6H-2,3,5,10b-tetraaza-benzo[e]azulene-5-carboxylic acid tert-butyl ester]",4.17 nM
3,"COc1ccc(F)cc1[C@H]1CC[C@H](c2nnc3n2-c2ccc(Cl)cc2CN(C(=O)OC(C)(C)C)C3)CC1 [Example 22, trans-8-Chloro-1-[4-(5-fluoro-2-methoxy-phenyl)-cyclohexyl]-4H,6H-2,3,5,10b-tetraaza-benzo[e]azulene-5-carboxylic acid tert-butyl ester]",11.2 nM
4,CC(C)(C)OC(=O)N1Cc2cc(Cl)ccc2-n2c(nnc2[C@H]2CC[C@H](c3ccc(F)cc3)CC2)C1 [Example 10],4.68 nM
5,"CC(C)(C)OC(=O)N1Cc2cc(Cl)ccc2-n2c(nnc2[C@H]2CC[C@H](c3cccc(OC(F)(F)F)c3)CC2)C1 [Example 13, trans-8-Chloro-1-[4-(3-trifluoromethoxy-phenyl)-cyclohexyl]-4H,6H-2,3,5,10b-tetraaza-benzo[e]azulene-5-carboxylic acid tert-butyl ester]",18.2 nM
6,"CS(=O)(=O)N1Cc2cc(Cl)ccc2-n2c(nnc2[C@H]2CC[C@H](c3ccccc3)CC2)C1 [Example 29, trans-8-Chloro-5-methanesulfonyl-1-(4-phenyl-cyclohexyl)-5,6-dihydro-4H-2,3,5,10b-tetraaza-benzo[e]azulene]",1.82 nM
7,"Cc1ccccc1[C@H]1CC[C@H](c2nnc3n2-c2ccc(Cl)cc2CN(C)C3)CC1 [Example 5, trans-8-Chloro-5-methyl-1-(4-o-tolyl-cyclohexyl)-5,6-dihydro-4H-2,3,5,10b-tetraaza-benzo[e]azulene]",4.27 nM
8,"CN1Cc2cc(Cl)ccc2-n2c(nnc2[C@H]2CC[C@H](c3cccc(OC(F)(F)F)c3)CC2)C1 [Example 15, trans-8-Chloro-5-methyl-1-[4-(3-trifluoromethoxy-phenyl)-cyclohexyl]-5,6-dihydro-4H-2,3,5,10b-tetraaza-benzo[e]azulene]",10.2 nM
9,"CC(C)(C)OC(=O)N1Cc2cc(Cl)ccc2-n2c(nnc2[C@H]2CC[C@H](c3ccccc3)CC2)C1 [Example 1, trans-8-Chloro-1-(4-phenyl-cyclohexyl)-4H,6H-2,3,5,10b-tetraaza-benzo[e]azulene-5-carboxylic acid tert-butyl ester]",6.46 nM
10,"N#Cc1cccc([C@H]2CC[C@H](c3nnc4n3-c3ccc(Cl)cc3CNC4)CC2)c1 [Example 26, trans-3-[4-(8-Chloro-5,6-dihydro-4H-2,3,5,10b-tetraaza-benzo[e]azulen-1-yl)-cyclohexyl]-benzonitrile hydrochloride]",32.4 nM
11,"Clc1ccc2c(c1)CN(c1ccccn1)Cc1nnc([C@H]3CC[C@H](c4ccccc4)CC3)n1-2 [Example 33, trans-8-Chloro-1-(4-phenyl-cyclohexyl)-5-pyridin-2-yl-5,6-dihydro-4H-2,3,5,10b-tetraaza-benzo[e]azulene]",8.91 nM
12,"FC(F)(F)Oc1cccc([C@H]2CC[C@H](c3nnc4n3-c3ccc(Cl)cc3CNC4)CC2)c1 [Example 14, trans-8-Chloro-1-[4-(3-trifluoromethoxy-phenyl)-cyclohexyl]-5,6-dihydro-4H-2,3,5,10b-tetraaza-benzo[e]azulene hydrochloride]",57.5 nM
13,"CC(=O)N1Cc2cc(Cl)ccc2-n2c(nnc2[C@H]2CC[C@H](c3ccccc3)CC2)C1 [Example 28, trans-1-[8-Chloro-1-(4-phenyl-cyclohexyl)-4H,6H-2,3,5,10b-tetraaza-benzo[e]azulen-5-yl]-ethanone]",1.29 nM
14,"Cc1ccccc1[C@H]1CC[C@@H](c2nnc3n2-c2ccc(Cl)cc2CN(C)C3)CC1 [Example 4, cis-8-Chloro-5-methyl-1-(4-o-tolyl-cyclohexyl)-5,6-dihydro-4H-2,3,5,10b-tetraaza-benzo[e]azulene]",16.2 nM
15,"CN1Cc2cc(Cl)ccc2-n2c(nnc2[C@H]2CC[C@H](c3ccc(F)cc3)CC2)C1 [Example 12, trans-8-Chloro-1-[4-(4-fluoro-phenyl)-cyclohexyl]-5-methyl-5,6-dihydro-4H-2,3,5,10b-tetraaza-benzo[e]azulene]",2.19 nM
16,"Fc1ccc([C@H]2CC[C@@H](c3nnc4n3-c3ccc(Cl)cc3CNC4)CC2)cc1 [Example 8, cis-8-Chloro-1-[4-(4-fluoro-phenyl)-cyclohexyl]-5,6-dihydro-4H-2,3,5,10b-tetraaza-benzo[e]azulene hydrochloride]",302 nM
17,"COc1ccc(F)cc1[C@H]1CC[C@H](c2nnc3n2-c2ccc(Cl)cc2CN(C)C3)CC1 [Example 24, trans-8-Chloro-1-[4-(5-fluoro-2-methoxy-phenyl)-cyclohexyl]-5-methyl-5,6-dihydro-4H-2,3,5,10b-tetraaza-benzo[e]azulene]",5.75 nM
18,"Cc1ccccc1[C@H]1CC[C@@H](c2nnc3n2-c2ccccc2CN(C)C3)CC1 [Example 6, cis-5-Methyl-1-(4-o-tolyl-cyclohexyl)-5,6-dihydro-4H-2,3,5,10b-tetraaza-benzo[e]azulene]",339 nM
